Entries after “also recorded” stand apart in the source; their conditions may differ.
Tests used:
Assay type in all cases: cell-based
[1] = tested on: human pancreatic islets; assay: H & E stained thin sections of cultured human islets; conditions: preincubated with peptide, 7 days in RCCS bioreactor; compared with petri dish control
Procedure: (§1) In each sample, the islets were allowed to settle at 1×g in a sterile centrifuge tube. Once the islets had settled, the supernatant was removed and replaced with 2 ml of media. Control samples of islets (Samples 2 and 4) were placed in the control media (i.e., CMRL-1066 media containing 10% bovine serum, 1% penicillin/streptomycin/amphotericin B, and 2 mM glutamine) and experimental samples of islets (Samples 3 and 5) were incubated with the control media to which 50 μg/ml IKVAV-containing peptide such as the PA22-2 (SEQ ID NO. 1) peptide had been added. The IKVAV-containing peptides are hereinafter referred to as laminin A chain peptide.
(§2) All four samples were gently mixed and placed in a humidified incubator for 3 hours at 37° C. At half hour intervals, the tubes containing the samples were gently inverted to prevent aggregation of the islet pellet.
Samples 2 and 3 were transferred to standard culture dishes (petri dishes) at a cell density of approximately 200 islets/ml. Samples 4 and 5 were transferred to 35 ml perfused RCCS bioreactor vessels at a cell density of approximately 200 islets/ml. All of the samples (Samples 2-5) were then cultured for 7 days. After the Samples 2-5 had been cultured for 7 days, the islets were removed from the culture dish or RCCS bioreactor vessel and assessed for aggregation, apoptosis and ATP levels. […]

[2] = tested on: human pancreatic islets; assay: Aggregation of high-density pancreatic islets in culture (RCCS bioreactor or petri dish)
Procedure: It is hypothesized that synthetic peptides containing the IKVAV peptide sequence (SEQ ID NO. 2) can inhibit the aggregation of islets cultures in the RCCS bioreactor. Experiments were performed to compare the aggregation of about 200-300 islets/ml cultured in the presence and absence of each peptide to be tested. Initial experiments added the peptide to the culture media in a small (10 ml) RCCS bioreactor vessel. It was realized that providing a large volume of culture media with sufficient concentrations of the PA22-2 peptide or another IKVAV-containing peptide component of laminin would be prohibitively expensive. Thus, the experimental protocol was altered as described below.
as §1, with “peptide. […]” for “peptide.”
(§3) Samples 2 and 3 were transferred to standard culture dishes (petri dishes) at a cell density of approximately 200 islets/ml. […] After the Samples 2-5 had been cultured for 7 days, the islets were removed from the culture dish or RCCS bioreactor vessel and assessed for aggregation, apoptosis and ATP levels.
An aliquot of islets from each sample was fixed by washing the islets two times in phosphate buffered saline (PBS) and then transferring the washed samples to a 4% paraformaldehyde solution for 2 hours to fix the islets. […] The islets were analyzed for their, degree of aggregation by digitizing ten microscopic fields and measuring the cross sectional areas of the islets within each field with the image processing program NIH Image. […]

[3] = tested on: human pancreatic islets; assay: ATP levels in cultured human pancreatic islets (luciferin/luciferase luminescence)
Procedure: as §1, with “peptide. […]” for “peptide.”
as §3
Islet ATP levels were measured by luciferin/luciferase luminescence. […] The cells were pelleted by centrifugation and 10 μl of the lysed cell supernatant was placed in a luminescence multiwell plate with 90 μl of reaction solution (25 mM Tricine pH 7.8, 5 mM MgSO4, 0.1 mM EDTA, 0.1 mM sodium azide with 0.5 mM lucifirin, 1 mM DTT and 12.5 μg of firefly luciferase). […]
The data from four experiments was analyzed by a one-way ANOVA. […]

[4] = tested on: caspase 3 activity in cultured human pancreatic islets; assay: Caspase 3 activity (apoptosis) in cultured human pancreatic islets
Procedure: as §1, §2
Samples 2 and 3 were transferred to standard culture dishes (petri dishes) at a cell density of approximately 200 islets/ml. Samples 4 and 5 were transferred to 35 ml perfused RCCS bioreactor vessels at a cell density of approximately 200 islets/ml. […] After the Samples 2-5 had been cultured for 7 days, the islets were removed from the culture dish or RCCS bioreactor vessel and assessed for aggregation, apoptosis and ATP levels. […]
Fifty microliters of the lysed cell supernatant from each sample was transferred into a microplate well. […] The free rhodamine was measured by fluorescence (excitation/emission-496/520 nm). The fluorescence was quantitated using arbitrary fluorescence units derived by normalizing the rhodamine fluorescence to the quantity of DNA in the islet sample, which is directly proportional to cell number.
Experiments were performed to compare islet caspase 3 activity in islets cultured in conventional petri dishes (labeled in FIG. 3 as Dish) with islets preincubated with the laminin A chain peptide PA22-2 and cultured in an RCCS bioreactor (labeled in FIG. 3 as RCCS+ laminin). […] The data from four experiments was analyzed by a one-way ANOVA. Differences between the groups were determined by the Student-Newman Keuls test.

## CYS-SER-ARG-ALA-ARG-LYS-GLN-ALA-ALA-SER-ILE-LYS-VAL-ALA-VAL-SER-ALA-ASP-ARG (CSRARKQAASIKVAVSADR; laminin A chain) [PA22-2, 19 amino acid synthetic peptide containing residues 2091-2108 of the laminin A chain, IKVAV-containing]
[1]
  islet structure / membrane integrity (H & E thin sections): maintained their membrane integrity and appeared to be healthy and viable
[2]; peptide added to RCCS-cultured islets, cell density about 200-300 islets/ml
  aggregation inhibiting activity: showed substantial aggregation inhibiting activity
[2]; peptide left in the media during the entire culture period, petri dish
  adherence of islets to petri dish: caused the petri dish control islets to adhere to the non-stick petri dishes
[2]; preincubated 3 hours with 50 μg/ml peptide, then seven-day culture in RCCS bioreactor, compared with no peptide
  degree of aggregation of islets: lower degree of aggregation; also recorded: sufficient to prevent aggregation of the islets in the RCCS bioreactor; also recorded: beneficial in preventing islet aggregation
[3]; RCCS+laminin (Sample 5): preincubated with peptide, 7 days RCCS, vs Dish control (Sample 2), p<0.05, n=4
  ATP levels: significantly higher ATP levels
[3]; Sample 3: preincubated 3 hours with 50 μg/ml peptide, 7 days petri dish, vs Dish control (100%), n=4
  ATP levels: tended to have higher ATP levels but the values did not have a p value less than 0.05
[4]; Dish+ laminin: preincubated 3 hours with 50 μg/ml peptide, 7 days petri dish, vs Dish control (100%), n=4
  caspase 3 activity: slightly lower caspase 3 activity but the values did not have a p value less than 0.05; also recorded: no significant effect on islet caspase 3 activity
[4]; RCCS+ laminin (Sample 5): preincubated 3 hours with 50 μg/ml peptide, 7 days RCCS, vs RCCS-cultured islets without peptide (Sample 4)
  caspase 3 activity: less caspase 3 activity than the RCCS-cultured islets of Sample 4
[4]; RCCS+ laminin: preincubated 3 hours with 50 μg/ml peptide, 7 days RCCS, vs Dish control, p<0.05, n=4
  caspase 3 activity: significantly less caspase 3 activity than did the dish-cultured islets

Source: patent US7507581B2, “Inhibition of pancreatic islet aggregation” (Synthecon, Inc., priority 2005, dated 2009)
